Where two headings read alike, the source gives them in different places. Numbered stars: 1 amine (or outer) side, 2 acyl side, 3 side chain; on linkers, the order of the positions; unused ones are H or OH. Square brackets hold non-standard residues; d marks the D form. Side chains are listed from the residue outwards. Peptide text beside a SMILES is read from it. * marks the point of attachment. γGlu = O=C(O)[C@H](CCC(=O)[*:2])N[*:1]; Palmitoyl = CCCCCCCCCCCCCCCC(=O)*; αMeF = C[C@](N)(Cc1ccccc1)C(=O)O; αMeK = C[C@](N)(CCCCN)C(=O)O; αMeS = C[C@](N)(CO)C(=O)O; Aib = CC(C)(N)C(=O)O

Six compounds from patent US10414811B2, “Protease-resistant lipidated GLP-1 analogs” (MEDIMMUNE LIMITED, priority 2015, dated 2019) can be followed below.

Common to all, as to format: cell-based
Assay [1] deals with T1, human GLP-1 receptor (GLP-1R) (Homo sapiens, UniProt P43220).
T1 construct: expressed in transfected cells
T1 sequence (P43220 24-463): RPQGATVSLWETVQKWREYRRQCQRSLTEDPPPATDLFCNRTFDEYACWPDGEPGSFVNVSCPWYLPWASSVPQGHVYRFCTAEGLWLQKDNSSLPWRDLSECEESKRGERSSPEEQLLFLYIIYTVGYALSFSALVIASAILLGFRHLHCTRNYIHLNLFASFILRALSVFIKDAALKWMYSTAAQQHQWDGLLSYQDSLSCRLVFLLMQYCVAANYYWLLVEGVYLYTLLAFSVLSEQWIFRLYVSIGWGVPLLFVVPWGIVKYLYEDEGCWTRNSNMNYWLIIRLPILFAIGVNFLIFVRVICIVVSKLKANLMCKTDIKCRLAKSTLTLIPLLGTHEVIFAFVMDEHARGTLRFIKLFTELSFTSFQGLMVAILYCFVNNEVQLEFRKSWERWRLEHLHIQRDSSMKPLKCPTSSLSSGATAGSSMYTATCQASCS
The experiment in a line: cAMP assay, human GLP-1R cells. The gist of the method:
(§1)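 Peptide-stimulated cAMP measured by two-step HTRF after a 30 min room-temperature incubation with receptor-expressing cells (hGLP-1R, hGIPR at 1×10^5 cells/ml; hGCGR at 2×10^5 cells/ml). Duplicate dilutions; EC50 from 4-parameter logistic fit of % Delta F.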

Assay [2] has as its target T2, human glucagon receptor (GCGR) (Homo sapiens, UniProt P47871).
T2 construct: expressed in transfected cells
The experiment in a line: cAMP assay, human GCGR cells. The settings on record: cAMP assay. The gist of the method: as §1

In assay [3] the target is T3, human glucose-dependent insulinotropic peptide receptor (GIPR) (Homo sapiens, UniProt P48546).
T3 construct: expressed in transfected cells
T3 sequence (P48546 22-466): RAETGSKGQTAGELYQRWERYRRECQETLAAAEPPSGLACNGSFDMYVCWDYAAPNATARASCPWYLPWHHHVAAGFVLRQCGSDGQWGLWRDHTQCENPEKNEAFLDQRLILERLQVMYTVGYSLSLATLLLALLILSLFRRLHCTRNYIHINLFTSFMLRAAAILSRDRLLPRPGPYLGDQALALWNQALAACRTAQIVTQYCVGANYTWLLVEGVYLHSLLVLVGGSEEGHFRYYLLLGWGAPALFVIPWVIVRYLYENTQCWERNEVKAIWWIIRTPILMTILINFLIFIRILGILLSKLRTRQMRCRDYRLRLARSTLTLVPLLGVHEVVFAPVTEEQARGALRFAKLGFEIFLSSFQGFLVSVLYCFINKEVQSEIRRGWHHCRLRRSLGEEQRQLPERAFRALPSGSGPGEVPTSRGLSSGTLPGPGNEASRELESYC
The experiment in a line: cAMP assay, human GIPR cells. The settings on record: cAMP assay. In outline: as §1

The mark [4] stands for this setting: cAMP assay, first determination (n1), read-out: Primary assay EC50 GLP-1R n1.
Setting [5] is: cAMP assay, second determination (n2), read-out: Primary assay EC50 GLP-1R n2.
[6] abbreviates: mean of n1 and n2, read-out: Mean pM GLP-1R.
Setting [7] is: first determination (n1), read-out: Primary assay EC50 Gluc-R (n1).
The mark [8] stands for this setting: second determination (n2), read-out: Primary assay EC50 Gluc-R (n2).
The mark [9] stands for this setting: first determination (n1), read-out: Primary assay EC50 GIP-R (n1).
[10] abbreviates: second determination (n2), read-out: Primary assay EC50 GIP-R (n2).

T2 sequence (P47871 26-477): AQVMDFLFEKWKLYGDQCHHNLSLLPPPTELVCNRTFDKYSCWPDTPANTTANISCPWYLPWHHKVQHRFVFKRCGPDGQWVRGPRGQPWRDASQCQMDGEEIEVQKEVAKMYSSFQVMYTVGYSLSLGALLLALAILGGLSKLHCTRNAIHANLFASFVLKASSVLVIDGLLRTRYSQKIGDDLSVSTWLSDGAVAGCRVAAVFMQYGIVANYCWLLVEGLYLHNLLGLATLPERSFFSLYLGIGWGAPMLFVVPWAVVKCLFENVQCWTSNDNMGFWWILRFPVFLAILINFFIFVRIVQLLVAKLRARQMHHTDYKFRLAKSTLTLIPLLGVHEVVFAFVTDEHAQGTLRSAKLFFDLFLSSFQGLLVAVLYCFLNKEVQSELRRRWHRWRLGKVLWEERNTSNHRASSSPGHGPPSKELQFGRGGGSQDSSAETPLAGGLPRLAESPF

Consider `CCCCCCCCCCCCCCCC(=O)N[C@@H](CCC(=O)NCCCC[C@H](NC(=O)CNC(=O)[C@](C)(CCCCN)NC(=O)[C@@H](NC(=O)[C@@H](NC(=O)[C@](C)(Cc1ccccc1)NC(=O)[C@H](C)NC(=O)[C@@H](NC(=O)[C@](C)(Cc1ccccc1)NC(=O)[C@H](CCC(=O)O)NC(=O)[C@](C)(CCCCN)NC(=O)[C@H](C)NC(=O)[C@H](C)NC(=O)[C@H](CCC(=O)O)NC(=O)CNC(=O)[C@H](CCC(=O)O)NC(=O)[C@H](CC(C)C)NC(=O)[C@](C)(Cc1ccccc1)NC(=O)[C@H](CO)NC(=O)[C@](C)(CO)NC(=O)[C@@H](NC(=O)[C@H](CC(=O)O)NC(=O)[C@H](CO)NC(=O)[C@@H](NC(=O)[C@](C)(Cc1ccccc1)NC(=O)[C@H](CO)NC(=O)CNC(=O)[C@H](CCC(=O)O)NC(=O)C(C)(C)NC(=O)[C@@H](N)Cc1c[nH]cn1)[C@@H](C)O)C(C)C)[C@@H](C)CC)C(C)C)C(C)C)C(N)=O)C(=O)O` [compound 70] (H-H[Aib]EGS[αMeF]TSDV[αMeS]S[αMeF]LEGEAA[αMeK]E[αMeF]IA[αMeF]VV[αMeK]GK([γGlu-Palmitoyl])-NH2; N-terminus assumed), for which the EC50 in assay [1] (setting [4]) was 74 pM; in assay [1] (setting [5]), 92 pM; in assay [1] (setting [6]), 83 pM; in assay [2] (setting [7]), ≥ 27 nM; in assay [2] (setting [8]) it was ≥ 27 nM; in assay [3] (setting [9]), ≥ 27 nM. Further, the EC50 in assay [3] (setting [10]) was ≥ 27 nM.

In the case of `CCCCCCCCCCCCCCCC(=O)N[C@@H](CCC(=O)NCCCC[C@H](NC(=O)[C@@H](NC(=O)[C@](C)(Cc1ccccc1)NC(=O)[C@H](C)NC(=O)[C@@H](NC(=O)[C@](C)(Cc1ccccc1)NC(=O)[C@H](CCC(=O)O)NC(=O)[C@](C)(CCCCN)NC(=O)[C@H](C)NC(=O)[C@H](C)NC(=O)[C@H](CCC(=O)O)NC(=O)CNC(=O)[C@H](CCC(=O)O)NC(=O)[C@H](CC(C)C)NC(=O)[C@](C)(Cc1ccccc1)NC(=O)[C@H](CO)NC(=O)[C@](C)(CO)NC(=O)[C@@H](NC(=O)[C@H](CC(=O)O)NC(=O)[C@H](CO)NC(=O)[C@@H](NC(=O)[C@](C)(Cc1ccccc1)NC(=O)[C@H](CO)NC(=O)CNC(=O)[C@H](CCC(=O)O)NC(=O)C(C)(C)NC(=O)[C@@H](N)Cc1c[nH]cn1)[C@@H](C)O)C(C)C)[C@@H](C)CC)C(C)C)C(=O)N[C@@](C)(CCCCN)C(=O)NCC(=O)NCC(N)=O)C(=O)O` [compound 73] (H-H[Aib]EGS[αMeF]TSDV[αMeS]S[αMeF]LEGEAA[αMeK]E[αMeF]IA[αMeF]VK([γGlu-Palmitoyl])[αMeK]GG-NH2), the EC50 in assay [1] (setting [4]) is 130 pM; in assay [1] (setting [5]) it was 160 pM; in assay [1] (setting [6]), 146 pM; in assay [2] (setting [7]), ≥ 28 nM; in assay [2] (setting [8]) it was ≥ 28 nM; in assay [3] (setting [9]), ≥ 28 nM. In assay [3] (setting [10]), the EC50 was ≥ 28 nM.

As to `CCCCCCCCCCCCCCCC(=O)N[C@@H](CCC(=O)NCCCC[C@H](NC(=O)[C@H](CCC(=O)O)NC(=O)[C@](C)(CCCCN)NC(=O)[C@H](C)NC(=O)[C@H](C)NC(=O)[C@H](CCC(=O)O)NC(=O)CNC(=O)[C@H](CCC(=O)O)NC(=O)[C@H](CC(C)C)NC(=O)[C@](C)(Cc1ccccc1)NC(=O)[C@H](CO)NC(=O)[C@](C)(CO)NC(=O)[C@@H](NC(=O)[C@H](CC(=O)O)NC(=O)[C@H](CO)NC(=O)[C@@H](NC(=O)[C@](C)(Cc1ccccc1)NC(=O)[C@H](CO)NC(=O)CNC(=O)[C@H](CCC(=O)O)NC(=O)C(C)(C)NC(=O)[C@@H](N)Cc1c[nH]cn1)[C@@H](C)O)C(C)C)C(=O)N[C@H](C(=O)N[C@@H](C)C(=O)N[C@@](C)(Cc1ccccc1)C(=O)N[C@H](C(=O)N[C@H](C(=O)N[C@@](C)(CCCCN)C(=O)NCC(=O)NCC(N)=O)C(C)C)C(C)C)[C@@H](C)CC)C(=O)O` [compound 78], the EC50 was 18 pM in assay [1] (setting [4]); 9.3 pM in assay [1] (setting [5]); 14 pM in assay [1] (setting [6]); ≥ 28 nM in assay [2] (setting [7]); ≥ 28 nM in assay [2] (setting [8]); ≥ 28 nM in assay [3] (setting [9]). Also, the EC50 in assay [3] (setting [10]) is ≥ 28 nM.

Consider `CCCCCCCCCCCCCCCC(=O)N[C@@H](CCC(=O)NCCCC[C@H](NC(=O)[C@H](C)NC(=O)[C@H](CCC(=O)O)NC(=O)CNC(=O)[C@H](CCC(=O)O)NC(=O)[C@H](CC(C)C)NC(=O)[C@](C)(Cc1ccccc1)NC(=O)[C@H](CO)NC(=O)[C@](C)(CO)NC(=O)[C@@H](NC(=O)[C@H](CC(=O)O)NC(=O)[C@H](CO)NC(=O)[C@@H](NC(=O)[C@](C)(Cc1ccccc1)NC(=O)[C@H](CO)NC(=O)CNC(=O)[C@H](CCC(=O)O)NC(=O)C(C)(C)NC(=O)[C@@H](N)Cc1c[nH]cn1)[C@@H](C)O)C(C)C)C(=O)N[C@@](C)(CCCCN)C(=O)N[C@@H](CCC(=O)O)C(=O)N[C@@](C)(Cc1ccccc1)C(=O)N[C@H](C(=O)N[C@@H](C)C(=O)N[C@@](C)(Cc1ccccc1)C(=O)N[C@H](C(=O)N[C@H](C(=O)N[C@@](C)(CCCCN)C(=O)NCC(=O)NCC(N)=O)C(C)C)C(C)C)[C@@H](C)CC)C(=O)O` [compound 81] (H-H[Aib]EGS[αMeF]TSDV[αMeS]S[αMeF]LEGEAK([γGlu-Palmitoyl])[αMeK]E[αMeF]IA[αMeF]VV[αMeK]GG-NH2; N-terminus assumed), for which the EC50 is 370 pM in assay [1] (setting [4]); 200 pM in assay [1] (setting [5]); 283 pM in assay [1] (setting [6]); ≥ 27 nM in assay [2] (setting [7]); ≥ 27 nM in assay [2] (setting [8]); ≥ 27 nM in assay [3] (setting [9]). For the same compound, in assay [3] (setting [10]), the EC50 is ≥ 27 nM.

Turning to `CCCCCCCCCCCCCCCC(=O)N[C@@H](CCC(=O)NCCCC[C@H](NC(=O)[C@H](CC(C)C)NC(=O)[C@](C)(Cc1ccccc1)NC(=O)[C@H](CO)NC(=O)[C@](C)(CO)NC(=O)[C@@H](NC(=O)[C@H](CC(=O)O)NC(=O)[C@H](CO)NC(=O)[C@@H](NC(=O)[C@](C)(Cc1ccccc1)NC(=O)[C@H](CO)NC(=O)CNC(=O)[C@H](CCC(=O)O)NC(=O)C(C)(C)NC(=O)[C@@H](N)Cc1c[nH]cn1)[C@@H](C)O)C(C)C)C(=O)NCC(=O)N[C@@H](CCC(=O)O)C(=O)N[C@@H](C)C(=O)N[C@@H](C)C(=O)N[C@@](C)(CCCCN)C(=O)N[C@@H](CCC(=O)O)C(=O)N[C@@](C)(Cc1ccccc1)C(=O)N[C@H](C(=O)N[C@@H](C)C(=O)N[C@@](C)(Cc1ccccc1)C(=O)N[C@H](C(=O)N[C@H](C(=O)N[C@@](C)(CCCCN)C(=O)NCC(=O)NCC(N)=O)C(C)C)C(C)C)[C@@H](C)CC)C(=O)O` [compound 85] (H-H[Aib]EGS[αMeF]TSDV[αMeS]S[αMeF]LK([γGlu-Palmitoyl])GEAA[αMeK]E[αMeF]IA[αMeF]VV[αMeK]GG-NH2; N-terminus assumed), the EC50 was 66 pM in assay [1] (setting [4]); 140 pM in assay [1] (setting [5]); 101 pM in assay [1] (setting [6]); ≥ 28 nM in assay [2] (setting [7]); ≥ 28 nM in assay [2] (setting [8]); ≥ 28 nM in assay [3] (setting [9]). Moreover, the EC50 in assay [3] (setting [10]) was ≥ 28 nM.

As for `CCCCCCCCCCCCCCCC(=O)N[C@@H](CCC(=O)NCCCC[C@H](NC(=O)[C@@H](NC(=O)[C@H](CC(=O)O)NC(=O)[C@H](CO)NC(=O)[C@@H](NC(=O)[C@](C)(Cc1ccccc1)NC(=O)[C@H](CO)NC(=O)CNC(=O)[C@H](CCC(=O)O)NC(=O)C(C)(C)NC(=O)[C@@H](N)Cc1c[nH]cn1)[C@@H](C)O)C(C)C)C(=O)N[C@@H](CO)C(=O)N[C@@](C)(Cc1ccccc1)C(=O)N[C@@H](CC(C)C)C(=O)N[C@@H](CCC(=O)O)C(=O)NCC(=O)N[C@@H](CCC(=O)O)C(=O)N[C@@H](C)C(=O)N[C@@H](C)C(=O)N[C@@](C)(CCCCN)C(=O)N[C@@H](CCC(=O)O)C(=O)N[C@@](C)(Cc1ccccc1)C(=O)N[C@H](C(=O)N[C@@H](C)C(=O)N[C@@](C)(Cc1ccccc1)C(=O)N[C@H](C(=O)N[C@H](C(=O)N[C@@](C)(CCCCN)C(=O)NCC(=O)NCC(N)=O)C(C)C)C(C)C)[C@@H](C)CC)C(=O)O` [compound 89], the EC50 in assay [1] (setting [4]) is 450 pM; in assay [1] (setting [5]) it was 650 pM; in assay [1] (setting [6]), 548 pM; in assay [2] (setting [7]), ≥ 28 nM; in assay [2] (setting [8]) it was ≥ 28 nM; in assay [3] (setting [9]), ≥ 28 nM. Besides, in assay [3] (setting [10]), the EC50 is ≥ 28 nM.
